Source: ChEMBL document CHEMBL1201862, “PubChem BioAssay data set” (2004)
Several values for one entry are separate records, joined by “and”; a condition that tells them apart may be missing. Identical values can stand only once. Activity calls are given as the source filed them.

What was measured:
[1] = biological target: Serine/threonine-protein phosphatase PP1-alpha catalytic subunit (Homo sapiens, UniProt P62136); experiment: inhibition of protein phosphatase 1 activity – biochemical, fluorescence, dose response (AID 2394)
[2] = biological target: Serine/threonine-protein phosphatase (Homo sapiens, UniProt Q9BPW0); experiment: inhibition of protein phosphatase 5 activity – biochemical, fluorescence, dose response (AID 2395)
[3] = biological target: Nonstructural protein 1 (Influenza A virus, UniProt Q194T2); type: functional, Influenza A virus (A/California/07/2009(H1N1))
[4] = biological target: T1, Replicative DNA helicase DnaB (Mycobacterium tuberculosis, UniProt P9WMR3); experiment: DnaB intein splicing inhibitors, dose response, biochemical, cell-free fluorescence (AID 449749); type: functional
T1 sequence (P9WMR3 whole entry): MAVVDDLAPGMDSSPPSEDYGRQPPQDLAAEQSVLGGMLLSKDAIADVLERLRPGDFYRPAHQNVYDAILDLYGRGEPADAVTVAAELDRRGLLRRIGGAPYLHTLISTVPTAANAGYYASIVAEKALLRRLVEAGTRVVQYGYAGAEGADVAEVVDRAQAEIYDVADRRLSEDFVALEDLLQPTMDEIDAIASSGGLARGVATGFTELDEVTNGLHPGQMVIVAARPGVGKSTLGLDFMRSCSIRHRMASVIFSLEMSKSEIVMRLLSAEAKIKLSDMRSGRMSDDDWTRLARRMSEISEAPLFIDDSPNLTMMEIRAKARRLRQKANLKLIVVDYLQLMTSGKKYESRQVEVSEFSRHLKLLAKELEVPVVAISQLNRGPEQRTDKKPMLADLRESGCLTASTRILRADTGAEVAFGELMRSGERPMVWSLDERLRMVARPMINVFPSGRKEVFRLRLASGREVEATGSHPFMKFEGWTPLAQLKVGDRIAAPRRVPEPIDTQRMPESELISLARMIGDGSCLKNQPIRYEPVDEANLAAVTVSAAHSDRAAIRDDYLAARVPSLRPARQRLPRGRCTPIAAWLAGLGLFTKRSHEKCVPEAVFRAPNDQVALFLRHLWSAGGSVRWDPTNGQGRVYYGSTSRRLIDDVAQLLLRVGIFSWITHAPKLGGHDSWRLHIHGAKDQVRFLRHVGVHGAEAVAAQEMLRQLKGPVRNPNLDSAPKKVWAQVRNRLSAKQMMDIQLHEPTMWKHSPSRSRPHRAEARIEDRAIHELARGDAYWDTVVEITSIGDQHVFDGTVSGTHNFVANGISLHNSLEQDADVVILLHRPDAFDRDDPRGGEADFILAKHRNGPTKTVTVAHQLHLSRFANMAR

[5] = biological target: T2, Apoptotic protease-activating factor 1 (Homo sapiens, UniProt O14727); type: functional
T2 sequence (O14727 whole entry): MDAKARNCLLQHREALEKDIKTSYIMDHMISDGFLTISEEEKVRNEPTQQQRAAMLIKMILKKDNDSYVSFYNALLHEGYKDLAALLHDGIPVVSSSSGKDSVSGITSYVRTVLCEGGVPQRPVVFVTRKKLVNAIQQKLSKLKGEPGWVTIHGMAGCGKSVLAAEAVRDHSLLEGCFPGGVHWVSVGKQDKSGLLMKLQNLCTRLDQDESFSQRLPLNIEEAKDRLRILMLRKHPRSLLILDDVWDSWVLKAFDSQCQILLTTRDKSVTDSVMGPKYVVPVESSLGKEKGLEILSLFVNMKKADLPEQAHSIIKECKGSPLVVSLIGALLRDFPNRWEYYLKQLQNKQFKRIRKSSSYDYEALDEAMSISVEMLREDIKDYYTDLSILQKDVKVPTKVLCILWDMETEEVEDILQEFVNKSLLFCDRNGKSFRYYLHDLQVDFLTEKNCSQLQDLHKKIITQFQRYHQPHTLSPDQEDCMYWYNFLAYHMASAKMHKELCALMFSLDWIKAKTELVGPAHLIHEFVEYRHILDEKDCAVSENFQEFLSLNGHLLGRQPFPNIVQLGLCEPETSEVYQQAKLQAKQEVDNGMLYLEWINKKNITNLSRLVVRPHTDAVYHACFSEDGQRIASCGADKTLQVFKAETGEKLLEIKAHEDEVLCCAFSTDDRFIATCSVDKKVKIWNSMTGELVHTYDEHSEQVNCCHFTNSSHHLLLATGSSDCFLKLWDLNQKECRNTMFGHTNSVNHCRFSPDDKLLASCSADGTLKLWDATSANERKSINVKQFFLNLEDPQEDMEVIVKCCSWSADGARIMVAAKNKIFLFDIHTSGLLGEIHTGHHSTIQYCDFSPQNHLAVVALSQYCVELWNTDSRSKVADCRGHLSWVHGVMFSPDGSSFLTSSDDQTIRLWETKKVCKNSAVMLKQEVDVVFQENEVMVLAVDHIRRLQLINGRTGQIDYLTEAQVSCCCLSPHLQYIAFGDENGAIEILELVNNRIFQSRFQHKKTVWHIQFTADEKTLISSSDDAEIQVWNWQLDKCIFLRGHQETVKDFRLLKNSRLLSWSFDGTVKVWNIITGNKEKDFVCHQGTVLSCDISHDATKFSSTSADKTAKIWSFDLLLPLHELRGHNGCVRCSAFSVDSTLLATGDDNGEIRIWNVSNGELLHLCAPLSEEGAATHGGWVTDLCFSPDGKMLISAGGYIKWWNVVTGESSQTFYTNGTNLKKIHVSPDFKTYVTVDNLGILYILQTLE

[6] = biological target: T3, Protein RecA (Mycobacterium tuberculosis, UniProt P9WHJ3); experiment: Fluorescence Cell-Free Homogeneous Dose Retest to Identify Inhibitors of RecA-Intein Splicing Activity. [Related pubchem assays (depositor defined):AID2097, AID2223, AID489010, AID492950]; type: functional
T3 sequence (P9WHJ3 whole entry): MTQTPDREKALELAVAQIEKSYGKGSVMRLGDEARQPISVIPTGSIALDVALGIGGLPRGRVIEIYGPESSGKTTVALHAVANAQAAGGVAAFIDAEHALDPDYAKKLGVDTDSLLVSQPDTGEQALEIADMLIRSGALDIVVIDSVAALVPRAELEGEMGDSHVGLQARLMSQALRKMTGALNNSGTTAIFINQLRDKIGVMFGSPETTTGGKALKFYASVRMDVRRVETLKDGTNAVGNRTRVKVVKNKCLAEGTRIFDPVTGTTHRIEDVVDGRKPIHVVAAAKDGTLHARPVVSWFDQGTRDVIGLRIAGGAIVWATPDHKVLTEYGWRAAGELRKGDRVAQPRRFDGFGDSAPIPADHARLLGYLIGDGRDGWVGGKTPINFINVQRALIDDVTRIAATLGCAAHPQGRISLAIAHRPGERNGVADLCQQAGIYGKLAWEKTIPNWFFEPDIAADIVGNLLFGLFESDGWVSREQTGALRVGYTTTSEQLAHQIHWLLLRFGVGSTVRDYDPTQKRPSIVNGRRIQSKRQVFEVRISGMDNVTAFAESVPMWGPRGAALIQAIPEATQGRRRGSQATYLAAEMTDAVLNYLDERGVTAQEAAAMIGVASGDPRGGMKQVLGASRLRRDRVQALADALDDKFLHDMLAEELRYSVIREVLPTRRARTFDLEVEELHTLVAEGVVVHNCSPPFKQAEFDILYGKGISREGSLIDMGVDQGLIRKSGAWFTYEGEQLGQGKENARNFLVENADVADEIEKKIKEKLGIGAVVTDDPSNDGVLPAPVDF

[7] = Luminescent dose response cell-based high throughput screening assay for inhibitors of the Janus kinase 2 mutant JAK2V617F. [Related pubchem assays: 1446 (Primary screen.), 1521 (Confirmation assay.), 1486 (Counter screen.)]; type: functional
[8] = viability of uninfected HEp-2 cells – cell-based, HTS, cytotoxicity control for RSV inhibitor project, dose response (AID 2410); type: functional; details: human respiratory syncytial virus
[9] = microbe, parasite or virus in culture; type: functional; details: Mycobacterium tuberculosis
[10] = Luminescence Cell-Based Dose Confirmation HTS to Identify Activators of 5'UTR Stem-Loop Driven Alpha-Synuclein mRNA Translation in H4 Neuroglioblastoma Cells. [Related pubchem assays: 1829 (Project Summary), 1814 (Primary HTS)]; type: functional
[11] = Luminescence Cell-Based Dose Response HTS to Identify Activators of Luciferase Translation or Activity in H4 […] Cells. [Related pubchem assays: 1829 (Project Summary), 1814 (Primary HTS)]; type: functional
[12] = system: H4; experiment: Luminescence Cell-Based Dose Response HTS to Identify Activators of 5'UTR Stem-Loop Driven Prion Protein mRNA Translation in H4 Neuroglioblastoma Cells. [Related pubchem assays: 1829 (Project Summary), 1814 (Primary HTS)]; type: functional; details: Homo sapiens
[13] = biological target: T4, Fibrinogen beta chain (Homo sapiens, UniProt P02675); experiment: Fluorescence polarization-based biochemical high throughput dose response assay to identify inhibitors that disrupt the binding of a cyclic peptide (Tn6) to the fibrin proteolytic product D-Dimer and fragment E complex [DD(E )].
T4 sequence (P02675 whole entry): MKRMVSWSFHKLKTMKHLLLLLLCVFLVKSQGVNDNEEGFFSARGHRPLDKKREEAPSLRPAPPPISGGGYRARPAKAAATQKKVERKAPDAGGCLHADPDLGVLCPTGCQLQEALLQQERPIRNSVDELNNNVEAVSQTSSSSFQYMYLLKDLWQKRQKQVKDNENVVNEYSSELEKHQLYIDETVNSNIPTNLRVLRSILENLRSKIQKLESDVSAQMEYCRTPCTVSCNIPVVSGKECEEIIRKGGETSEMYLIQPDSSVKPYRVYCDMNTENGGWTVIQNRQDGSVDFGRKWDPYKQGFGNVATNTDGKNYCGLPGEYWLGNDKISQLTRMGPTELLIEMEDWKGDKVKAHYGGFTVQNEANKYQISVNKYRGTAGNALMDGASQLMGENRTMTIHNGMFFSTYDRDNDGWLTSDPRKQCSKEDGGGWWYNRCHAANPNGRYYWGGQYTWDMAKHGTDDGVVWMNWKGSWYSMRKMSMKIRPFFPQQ

[14] = HGIII-sPLA2 enzyme inhibition potency – biochemical, QFRET, IC50, dose response (AID 743457);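 note: green fluorescence rise as the enzyme cleaves BODIPY PC-A2 in liposomes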
[15] = biological target: T4, Fibrinogen beta chain; experiment: Fluorescence polarization-based biochemical high throughput dose response assay to identify inhibitors that disrupt the binding of a cyclic peptide (Tn7) to the fibrin proteolytic product D-Dimer and fragment E complex [DD(E )].
[16] = CellTiter-Glo luminescence survival assay, SW480 colon tumor line, concentration-response curve, half-maximal inhibitory concentration (AID 1117338); type: functional
[17] = RKO cell viability reduction, dose response, CellTiter-Glo luminescence (AID 1117322); type: functional
[18] = cytotoxicity toward HCT116 cells – cell-based, CellTiter-Glo luminescence, IC50, dose response (AID 1117332); type: functional; details: HCT-116
[19] = SNU-C1 cell viability reduction, dose response, CellTiter-Glo luminescence (AID 1117323); type: functional, cell-based
[20] = glucagon-like peptide-1 release potency in STC-1, concentration-response, half-maximal inhibitory concentration in the STC-1 line (AID 1117345); type: functional, cell-based
[21] = cytotoxicity toward Colo320 cells – cell-based, CellTiter-Glo luminescence, IC50, dose response (AID 1117334); type: functional; details: COLO 320
[22] = Reduced DLD-1 viability, concentration-response, CellTiter-Glo luminescence (AID 1117352); type: functional
[23] = Potency on glucagon-like peptide 1 release, dose-response in NCI-H716 cell line, half maximal inhibitory concentration (AID 1117344); type: functional, cell-based
[24] = biological target: Cytochrome P450 2D6 (Homo sapiens, UniProt P10635);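 note: CYP2D6 member of a cytochrome P450 panel assay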
Chain of Cytochrome P450 2D6 (P10635 whole entry): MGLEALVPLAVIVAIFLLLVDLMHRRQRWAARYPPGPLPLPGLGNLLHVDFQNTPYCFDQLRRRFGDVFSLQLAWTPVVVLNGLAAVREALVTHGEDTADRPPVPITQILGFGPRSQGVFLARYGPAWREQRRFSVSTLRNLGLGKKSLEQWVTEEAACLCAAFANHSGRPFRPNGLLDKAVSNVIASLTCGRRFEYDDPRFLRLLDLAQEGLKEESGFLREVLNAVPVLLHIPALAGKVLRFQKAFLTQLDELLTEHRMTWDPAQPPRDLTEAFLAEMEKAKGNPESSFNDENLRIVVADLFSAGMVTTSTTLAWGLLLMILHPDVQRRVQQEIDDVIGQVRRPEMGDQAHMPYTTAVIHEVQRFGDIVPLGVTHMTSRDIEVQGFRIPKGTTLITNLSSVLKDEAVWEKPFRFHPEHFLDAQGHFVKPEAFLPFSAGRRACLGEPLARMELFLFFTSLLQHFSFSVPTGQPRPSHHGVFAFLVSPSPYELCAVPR

Chain of Serine/threonine-protein phosphatase PP1-alpha catalytic subunit (P62136 whole entry): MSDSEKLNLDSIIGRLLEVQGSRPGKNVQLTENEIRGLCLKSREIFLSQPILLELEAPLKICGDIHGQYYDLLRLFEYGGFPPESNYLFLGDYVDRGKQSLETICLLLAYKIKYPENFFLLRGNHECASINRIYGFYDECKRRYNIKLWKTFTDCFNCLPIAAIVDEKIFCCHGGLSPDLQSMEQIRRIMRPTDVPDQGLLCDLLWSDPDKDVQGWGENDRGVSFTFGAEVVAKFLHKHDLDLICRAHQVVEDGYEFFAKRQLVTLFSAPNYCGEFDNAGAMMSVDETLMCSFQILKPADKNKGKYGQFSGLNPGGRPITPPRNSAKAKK
Chain of Nonstructural protein 1 (Q194T2 whole entry): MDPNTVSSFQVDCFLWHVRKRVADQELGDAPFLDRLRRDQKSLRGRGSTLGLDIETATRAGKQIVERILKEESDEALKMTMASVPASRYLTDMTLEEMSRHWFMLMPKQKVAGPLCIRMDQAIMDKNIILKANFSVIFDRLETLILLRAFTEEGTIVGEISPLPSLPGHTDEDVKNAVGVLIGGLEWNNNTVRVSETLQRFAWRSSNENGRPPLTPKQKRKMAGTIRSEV
Chain of Serine/threonine-protein phosphatase (Q9BPW0 whole entry): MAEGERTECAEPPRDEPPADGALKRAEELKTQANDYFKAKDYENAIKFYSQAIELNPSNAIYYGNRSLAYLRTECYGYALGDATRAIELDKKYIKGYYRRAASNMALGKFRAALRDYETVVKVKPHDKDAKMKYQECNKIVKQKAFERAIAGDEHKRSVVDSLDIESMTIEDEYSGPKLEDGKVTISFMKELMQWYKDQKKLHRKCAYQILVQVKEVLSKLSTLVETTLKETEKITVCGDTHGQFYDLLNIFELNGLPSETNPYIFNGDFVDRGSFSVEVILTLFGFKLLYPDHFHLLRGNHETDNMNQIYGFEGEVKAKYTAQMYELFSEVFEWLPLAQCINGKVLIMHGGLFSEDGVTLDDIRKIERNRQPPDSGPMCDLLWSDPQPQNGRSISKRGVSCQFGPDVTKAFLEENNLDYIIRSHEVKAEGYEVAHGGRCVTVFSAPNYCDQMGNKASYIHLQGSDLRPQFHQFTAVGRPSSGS

For `Cc1ccc(NC2=C(N3CCOCC3)C(=O)c3ccccc3C2=O)cc1`, the IC50 [1] was > 67 µM (not active), the IC50 [2] was 20.9 µM (not active) and the IC50 [3] was 7.74 µM (active). For the same molecule, the AC50 [4] was 10.7 µM (active), the IC50 [5] was 19.4 µM (active) and the EC50 [6] was 15.7 µM (active).

For `O=C(CCl)NCc1cc(-c2ccc(Cl)cc2)no1`, the IC50 [7] was 1.23 µM (active), the CC50 [8] was 4.01 µM (active) and the CC50 [9] was 9.8 µM (active).

For `O=C1C(c2ccccc2)=[N+]([O-])c2ccccc21`, the IC50 [1] was 2.67 µM (active), the EC50 [10] was 12.7 µM (active) and the EC50 [11] was 36.4 µM (active). The EC50 [12] was 20 µM (active), the IC50 [2] was 10.3 µM (not active) and the IC50 [3] was 45.5 µM (active). For the same molecule, the IC50 [5] was 5.8 µM (active).

With `C[n+]1cc2c3c(ccc2c2ccc4cc5c(cc4c21)OCO5)OCO3` the IC50 [13] was 24.2 µM (inactive), the IC50 [14] was 51.8 µM (inactive) and the IC50 [15] was > 83.1 µM (inactive). The IC50 [16] was 0.379 µM (active), the IC50 [17] was 0.265 µM (active) and the IC50 [18] was 0.525 µM (active). The IC50 [19] was 0.316 µM (active), the IC50 [20] was > 40 µM (inactive) and the IC50 [21] was 0.35 µM (active). The IC50 [22] was 0.576 µM (active), the IC50 [23] was > 40 µM (inactive) and the AC50 [24] was 31.6 µM (inconclusive) and 7.94 µM (inconclusive).
